Data from patent US9663495B2 (YUHAN CORPORATION, priority 2013, dated 2017).
pEC50: −log10 of the molar value.

How the values were obtained:
GPR119 [1] = biological target: T1, GPR119 (Homo sapiens, UniProt Q8TDV5); test: cAMP Accumulation Assay (GPR119 CRE-bla CHO-K1 cells, LiveBLAzer-FRET B/G); format: cell-based; details: for pEC50: 5 hours incubation; for Emax (Fold): maximum activity, response ratio versus non-treated control group
T1 construct: host or cells: CHO-K1 (GPR119 CRE-bla, doxycycline-induced)
T1 sequence (Q8TDV5 1-335): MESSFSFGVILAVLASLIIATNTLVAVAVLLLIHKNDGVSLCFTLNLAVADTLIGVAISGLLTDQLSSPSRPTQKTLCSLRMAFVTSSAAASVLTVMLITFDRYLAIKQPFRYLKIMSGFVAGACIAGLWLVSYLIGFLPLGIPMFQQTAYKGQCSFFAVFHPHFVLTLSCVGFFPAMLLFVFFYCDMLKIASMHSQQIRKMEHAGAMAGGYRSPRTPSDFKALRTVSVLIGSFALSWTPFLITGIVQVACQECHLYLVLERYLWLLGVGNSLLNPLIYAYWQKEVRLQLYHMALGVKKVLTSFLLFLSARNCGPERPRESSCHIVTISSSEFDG
Protocol: 32 μl of an assay medium (DMEM supplemented with GlutaMax™ 99%, dialyzed FBS 1%, non-essential amino acid 1 mM, HEPES 25 mM, penicillin 100 U/ml, and streptomycin 100 μg/ml) was added to each well of a 384 black well plate and then the GPR119 CRE-bla CHO-K1 cells (Invitrogen) were seeded in 1×10^4 cells per well. Doxycycline was dissolved in the assay medium in the concentration of 1 μg/ml. The resulting solution (4 μl) was added to each well, which was then incubated in a 5% CO 2 incubator at 37° C. for about 20 to 24 hours. Each test compounds were diluted with the assay medium to prepare 10 samples, which have concentrations ranging from […], respectively. Each samples (8 μl) was added to each well, which was then incubated in a 5% CO2 incubator at 37° C. for 5 hours. In case of the control group, the well was treated with a solution (8 μl) prepared by diluting dimethyl sulfoxide (DMSO) in the assay medium to 1%. The substrate mixture (8 μl) was added to each well, which was then left under darkness at room temperature for 2 hours. The substrate mixture contains the followings: 1 mM LiveBLAzer™-FRET B/G(CCF4-AM) substrate 6 μl, solution B 60 μl, solution C 904 μl, and solution D 30 μl.
Fluorescence intensity was determined under the wavelength conditions of 400 nm/465 nm (excitation/emission) for the blue channel and 400 nm/535 nm (excitation/emission) for the green channel, with the fluorescence microplate reader (SpectraFluor Plus. TECAN). The net activity of each well was calculated by subtracting the average value of the cell-free control group from the value of the unstimulated (i.e., non-treated) control group or the stimulated (i.e., test compound-treated) group at each wavelength. MBX-2982 (Metabolex) was used as a control drug. The response ratio was calculated by dividing the net signal ratio (465 nm/535 nm) of the control drug or the test compound by the net signal ratio (465 nm/535 nm) of the non-treated control group. The relative ratio (R.R) was calculated by dividing the maximum activity [Emax (fold)] of the test compound (i.e., % activity in comparison with the background) by the maximum activity [Emax (fold)] of the control drug (MBX-2982) [Emax (% RR)=(Emax of the test compound/Emax of MBX-2982)×100]. EC50 (half maximal effective concentration) was calculated using the software for statistical analysis “Prism 5.0 (GraphPad)”, based on the values obtained according to concentrations of the test compounds.

GPR119 [2] = biological target: T1, GPR119; test: as above; format: cell-based; details: (Emax of the test compound/Emax of MBX-2982)x100, 5 hours incubation

Row | Structure (SMILES) | pEC50 (GPR119 [1]) | Emax (Fold) (GPR119 [1]) | Emax (% RR) (GPR119 [2])
1 | CCc1cnc(N2CCN(c3ncc(-c4ccc(-n5cnn(CCNS(C)(=O)=O)c5=O)c(F)c4)cc3C#N)[C@@H](C)C2)nc1 [Example 23, (S)—N-(2-(4-(4-(5-cyano-6-(4-(5-ethylpyrimidin-2-yl)-2-methylpiperazin-1-yl)pyridin-3-yl)-2-fluorophenyl)-5-oxo-4,5-dihydro-1H-1,2,4-triazol-1-yl)ethyl)methanesulfonamide] | 8.10 | 3.4 Fold | 111.7 % RR
2 | CCOC(=O)n1ncn(-c2ccc(-c3cnc(N4CCN(c5ncc(CC)cn5)C[C@@H]4C)c(C#N)c3)cc2F)c1=O [Example 24, (S)-ethyl 4-(4-(5-cyano-6-(4-(5-ethylpyrimidin-2-yl)-2-methylpiperazin-1-yl)pyridin-3-yl)-2-fluorophenyl)-5-oxo-4,5-dihydro-1H-1,2,4-triazol-1-carboxylate] | 8.35 | 3.6 Fold | 124.6 % RR
3 | CCc1cnc(N2CCN(c3ncc(-c4ccc(-n5cnn(CC(C)(C)C#N)c5=O)c(F)c4)cc3C#N)[C@@H](C)C2)nc1 [Example 25, (S)-5-(4-(1-(2-cyano-2-methylpropyl)-5-oxo-1H-1,2,4-triazol-4(5H)-yl)-3-fluorophenyl)-2-(4-(5-ethylpyrimidin-2-yl)-2-methylpiperazin-1-yl)nicotinonitrile] | 8.59 | 3.3 Fold | 116.0 % RR
4 | CCc1cnc(N2CCN(c3ncc(-c4ccc(-n5cnn(CCNC(C)=O)c5=O)c(F)c4)cc3C#N)[C@@H](C)C2)nc1 [Example 26, (S)—N-(2-(4-(4-(5-cyano-6-(4-(5-ethylpyrimidin-2-yl)-2-methylpiperazin-1-yl)pyridin-3-yl)-2-fluorophenyl)-5-oxo-4,5-dihydro-1H-1,2,4-triazol-1-yl)ethyl)acetamide] | 7.70 | 3.4 Fold | 112.5 % RR
5 | CCc1cnc(N2CCN(c3ncc(-c4ccc(-n5cnn(CN6CCN(C)CC6)c5=O)c(F)c4)cc3C#N)[C@@H](C)C2)nc1 [Example 27, (S)-2-(4-(5-ethylpyrimidin-2-yl)-2-methylpiperazin-1-yl)-5-(3-fluoro-4-(1-((4-methylpiperazin-1-yl)methyl)-5-oxo-1H-1,2,4-triazol-4(5H)-yl)phenyl)nicotinonitrile] | 8.51 | 4.0 Fold | 149.4 % RR
6 | CCc1cnc(N2CCN(c3ncc(-c4ccc(-n5cnn(CN6CCCC6)c5=O)c(F)c4)cc3C#N)[C@@H](C)C2)nc1 [Example 28, (S)-2-(4-(5-ethylpyrimidin-2-yl)-2-methylpiperazin-1-yl)-5-(3-fluoro-4-(5-oxo-1-(pyrrolidin-1-ylmethyl)-1H-1,2,4-triazol-4(5H)-yl)phenyl)nicotinonitrile] | 8.40 | 3.9 Fold | 145.6 % RR
7 | CCc1cnc(N2CCN(c3ncc(-c4cc(F)c(-n5cnn(C)c5=O)cc4F)cc3C#N)[C@@H](C)C2)nc1 [Example 29, (S)-5-(2,5-difluoro-4-(1-methyl-5-oxo-1H-1,2,4-triazol-4(5H)-yl)phenyl)-2-(4-(5-ethylpyrimidin-2-yl)-2-methylpiperazin-1-yl)nicotinonitrile] | 8.82 | 3.1 Fold | 110.1 % RR
8 | CCc1cnc(N2CCN(c3ncc(-c4ccc(-n5cnn(C(C)C)c5=O)c(F)c4)cc3C#N)CC2)nc1 [Example 30, 2-(4-(5-ethylpyrimidin-2-yl)piperazin-1-yl)-5-(3-fluoro-4-(1-isopropyl-5-oxo-1H-1,2,4-triazol-4(5H)-yl)phenyl)nicotinonitrile] | 8.82 | 3.8 Fold | 130.9 % RR
9 | CCc1cnc(N2CCN(c3ncc(-c4ccc(-n5cnn(CCOC)c5=O)c(F)c4)cc3C#N)CC2)nc1 [Example 31, 5-(4-(1-(2-methoxyethyl)-5-oxo-1H-1,2,4-triazol-4(5H)-yl)-3-fluorophenyl)-2-(4-(5-ethylpyrimidin-2-yl)piperazin-1-yl)nicotinonitrile] | 8.00 | 3.4 Fold | 148.7 % RR
10 | CCc1cnc(N2CCN(c3ncc(-c4ccc(-n5cnn(C[C@H](O)CO)c5=O)c(F)c4)cc3C#N)CC2)nc1 [Example 36, (S)-5-(4-(1-(2,3-dihydroxypropyl)-5-oxo-1H-1,2,4-triazol-4(5H)-yl)-3-fluorophenyl)-2-(4-(5-ethylpyrimidin-2-yl)piperazin-1-yl)nicotinonitrile] | 7.88 | 4.3 Fold | 118.1 % RR
11 | CCc1cnc(N2CCN(c3ncc(-c4ccc(-n5cnn(C)c5=O)cc4)cc3C#N)CC2)nc1 [Example 39, 2-(4-(5-ethylpyrimidin-2-yl)piperazin-1-yl)-5-(4-(1-methyl-5-oxo-1H-1,2,4-triazol-4(5H)-yl)phenyl)nicotinonitrile] | 8.42 | 3.9 Fold | 133.6 % RR
12 | CCc1cnc(N2CCN(c3ncc(-c4ccc(-n5cnn([C@H]6CCNC6)c5=O)cc4)cc3C#N)CC2)nc1 [Example 42, (S)-2-(4-(5-ethylpyrimidin-2-yl)piperazin-1-yl)-5-(4-(5-oxo-1-(pyrrolidin-3-yl)-1H-1,2,4-triazol-4(5H)-yl)phenyl)nicotinonitrile] | 7.68 | 3.0 Fold | 109.3 % RR
13 | CC(C)c1nc(N2CCN(c3ncc(-c4ccc(-n5cnn(C)c5=O)c(F)c4)cc3C#N)CC2)no1 [Example 45, 5-(3-fluoro-4-(1-methyl-5-oxo-1H-1,2,4-triazol-4(5H)-yl)phenyl)-2-(4-(5-isopropyl-1,2,4-oxadiazol-3-yl)piperazin-1-yl)nicotinonitrile] | 8.14 | 4.2 Fold | 144.7 % RR
14 | CC(C)c1nc(N2CCN(c3ncc(-c4ccc(-n5cnn(C(C)C)c5=O)c(F)c4)cc3C#N)CC2)no1 [Example 46, 5-(3-fluoro-4-(1-isopropyl-5-oxo-1H-1,2,4-triazol-4(5H)-yl)phenyl)-2-(4-(5-isopropyl-1,2,4-oxadiazol-3-yl)piperazin-1-yl)nicotinonitrile] | 8.38 | 3.9 Fold | 133.3 % RR
15 | COCn1ncn(-c2ccc(-c3cnc(N4CCN(c5noc(C(C)C)n5)CC4)c(C#N)c3)cc2)c1=O [Example 48, 2-(4-(5-isopropyl-1,2,4-oxadiazol-3-yl)piperazin-1-yl)-5-(4-(1-(methoxymethyl)-5-oxo-1H-1,2,4-triazol-4(5H)-yl)phenyl)nicotinonitrile] | 7.80 | 3.0 Fold | 109.1 % RR
16 | CCCn1ncn(-c2ccc(-c3cnc(N4CCN(c5noc(C(C)C)n5)CC4)c(C#N)c3)cc2F)c1=O.Cl [Example 49, 5-(3-fluoro-4-(5-oxo-1-propyl-1H-1,2,4-triazol-4(5H)-yl)phenyl)-2-(4-(5-isopropyl-1,2,4-oxadiazol-3-yl)piperazin-1-yl)nicotinonitrile hydrochloride] | 8.14 | 4.2 Fold | 144.7 % RR
